Consider six compounds from US20260176320A1, “MODULATORS OF G-PROTEIN COUPLED RECEPTORS” (priority 2018, published 2026).

Read-outs that look alike come from different tables or passages of the source.

For one assay, the target named is GLP-1R (Homo sapiens, UniProt P43220). As to the kind of experiment: HitHunter cAMP assay (GLP-1R). The note with it: for Emax: read-out: (Emax) GLP-1R. The assay is classed as cell-based. The method, boiled down:
(§1)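 cAMP, luminescence read: agonist 22-pt 2× dilution in DMSO, duplicate, 30 min RT on 10,000 cells/well in 1×HBSS/10 mM HEPES/625 μM IBMX/0.2% BSA; anti-cAMP reagent 1 h RT dark, then O/N RT dark before read.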
(In general: cAMP levels reflect the balance of adenylyl cyclase and phosphodiesterase activity.)

The target of a further assay is T1, GIP-R (Homo sapiens, UniProt P48546).
T1 sequence (P48546 22-466): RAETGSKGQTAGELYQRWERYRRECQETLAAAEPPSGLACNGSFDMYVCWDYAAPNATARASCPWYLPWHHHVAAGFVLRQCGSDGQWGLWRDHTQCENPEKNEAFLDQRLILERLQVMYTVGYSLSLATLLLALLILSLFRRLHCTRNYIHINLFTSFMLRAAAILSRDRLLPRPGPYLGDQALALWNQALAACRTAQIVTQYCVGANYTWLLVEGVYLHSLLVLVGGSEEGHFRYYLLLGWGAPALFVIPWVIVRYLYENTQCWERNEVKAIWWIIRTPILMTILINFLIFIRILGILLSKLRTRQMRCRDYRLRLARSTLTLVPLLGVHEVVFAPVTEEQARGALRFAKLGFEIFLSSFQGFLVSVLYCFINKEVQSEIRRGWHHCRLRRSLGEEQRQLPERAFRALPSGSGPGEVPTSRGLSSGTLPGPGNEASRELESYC
As to the kind of experiment: HitHunter cAMP assay (GIP-R). The assay is classed as cell-based. The following applies: for Emax: read-out: (Emax) GIP-R; for Emax at 1 µM: read-out: (Emax) GIP-R at 1 μM, Table 3. Put shortly: as §1

The mark [1] stands for this setting: Table 3, cAMP, read-out: EC50 GLP-1R/nM.
Setting [2] is: Table 3A, cAMP, read-out: EC50 GLP-1R/nM.
[3] abbreviates: Table 3, cAMP, read-out: EC50 GIP-R/nM.
Setting [4] is: Table 3A, cAMP, read-out: EC50 GIP-R/nM.

Sequence of GLP-1R (P43220 24-463): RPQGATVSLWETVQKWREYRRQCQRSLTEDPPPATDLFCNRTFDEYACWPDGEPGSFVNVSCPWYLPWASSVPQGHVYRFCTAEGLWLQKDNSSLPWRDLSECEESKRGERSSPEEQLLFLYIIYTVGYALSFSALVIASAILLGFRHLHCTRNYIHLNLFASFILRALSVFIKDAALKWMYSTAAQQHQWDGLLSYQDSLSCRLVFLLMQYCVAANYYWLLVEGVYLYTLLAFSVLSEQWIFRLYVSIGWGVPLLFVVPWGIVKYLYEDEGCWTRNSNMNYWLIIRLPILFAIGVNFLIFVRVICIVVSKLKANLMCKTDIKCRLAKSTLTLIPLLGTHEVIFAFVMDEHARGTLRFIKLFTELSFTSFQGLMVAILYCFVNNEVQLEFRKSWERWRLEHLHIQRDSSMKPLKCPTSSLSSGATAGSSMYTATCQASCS

The Emax is the maximal effect, on the per cent scale that the assay sets. `CCCCCCCCCCCCCCCC(=O)N[C@@H](CCC(=O)NCCCC[C@H](NC(=O)[C@H](CO)NC(=O)[C@@H]1CCCN1C(=O)[C@@H]1CCCN1C(=O)[C@@H]1CCCN1C(=O)[C@H](C)NC(=O)CNC(=O)[C@H](CO)NC(=O)[C@H](CO)NC(=O)[C@@H]1CCCN1C(=O)CNC(=O)CNC(=O)[C@H](C)NC(=O)[C@H](CC(C)C)NC(=O)[C@H](CC(C)C)NC(=O)[C@H](Cc1c[nH]c2ccccc12)NC(=O)[C@H](CC(N)=O)NC(=O)[C@@H](NC(=O)[C@H](Cc1ccccc1)NC(=O)[C@H](CCC(=O)O)NC(=O)C(C)(C)NC(=O)[C@H](C)NC(=O)[C@H](C)NC(=O)[C@H](CCC(N)=O)NC(=O)[C@H](CCCCN)NC(=O)[C@H](CC(=O)O)NC(=O)[C@H](CC(C)C)NC(=O)[C@H](Cc1ccc(O)cc1)NC(=O)[C@@H](NC(=O)[C@H](CO)NC(=O)[C@H](Cc1ccc(O)cc1)NC(=O)[C@H](CC(=O)O)NC(=O)[C@H](CO)NC(=O)[C@@H](NC(=O)[C@H](Cc1ccccc1)NC(=O)[C@@H](NC(=O)CNC(=O)[C@H](CCC(=O)O)NC(=O)CCNC(=O)CCCN1C(=O)c2ccccc2C1=O)[C@@H](C)O)[C@@H](C)O)[C@@H](C)CC)C(C)C)C(N)=O)C(=O)O` [Compound 115]: the Emax on GLP-1R (Table 3, cAMP) came to 91%; on GLP-1R (Table 3A, cAMP), 91%; at GIP-R (Table 3, cAMP) it was 67%; on GIP-R (Table 3A, cAMP), 67%. Also, the EC50 on GLP-1R (setting [1]), at GLP-1R (setting [2]), at GIP-R (setting [3]) and on GIP-R (setting [4]) was 1 to 10 nM each time.

Regarding `CC[C@H](C)[C@H](NC(=O)[C@H](CO)NC(=O)[C@H](Cc1ccc(O)cc1)NC(=O)[C@H](CC(=O)O)NC(=O)[C@H](CO)NC(=O)[C@@H](NC(=O)[C@H](Cc1ccccc1)NC(=O)[C@@H](NC(=O)CNC(=O)[C@H](CCC(=O)O)NC(=O)CSCC(=O)NCCN1C(=O)CCC1=O)[C@@H](C)O)[C@@H](C)O)C(=O)N[C@@H](Cc1ccc(O)cc1)C(=O)N[C@@H](CC(C)C)C(=O)N[C@@H](CC(=O)O)C(=O)N[C@@H](CCCCN)C(=O)N[C@@H](CCC(N)=O)C(=O)N[C@@H](C)C(=O)N[C@@H](C)C(=O)NC(C)(C)C(=O)N[C@@H](CCC(=O)O)C(=O)N[C@@H](Cc1ccccc1)C(=O)N[C@H](C(=O)N[C@@H](CC(N)=O)C(=O)N[C@@H](Cc1c[nH]c2ccccc12)C(=O)N[C@@H](CC(C)C)C(=O)N[C@@H](CC(C)C)C(=O)N[C@@H](C)C(=O)NCC(=O)NCC(=O)N1CCC[C@H]1C(=O)N[C@@H](CO)C(=O)N[C@@H](CO)C(=O)NCC(=O)N[C@@H](C)C(=O)N1CCC[C@H]1C(=O)N1CCC[C@H]1C(=O)N1CCC[C@H]1C(=O)N[C@@H](CO)C(=O)N[C@@H](CCCCN)C(N)=O)C(C)C` [Compound 117], the maximum response (Emax) at GLP-1R (Table 3, cAMP) was 92%; at GLP-1R (Table 3A, cAMP), 92%; at GIP-R (Table 3, cAMP) it was 70%; on GIP-R (Table 3A, cAMP), 70%. For the same compound, the EC50 at GLP-1R (setting [1]) is 10 to 100 nM; on GLP-1R (setting [2]) it was 1 to 10 nM; on GIP-R (setting [3]), 10 to 100 nM; on GIP-R (setting [4]), 10 to 100 nM.

`CC[C@H](C)[C@H](NC(=O)[C@H](CO)NC(=O)[C@H](Cc1ccc(O)cc1)NC(=O)[C@H](CC(=O)O)NC(=O)[C@H](CO)NC(=O)[C@@H](NC(=O)[C@H](Cc1ccccc1)NC(=O)[C@@H](NC(=O)CNC(=O)[C@H](CCC(=O)O)NC(=O)CSCC(=O)NCCn1ccc(C(F)(F)F)cc1=O)[C@@H](C)O)[C@@H](C)O)C(=O)N[C@@H](Cc1ccc(O)cc1)C(=O)N[C@@H](CC(C)C)C(=O)N[C@@H](CC(=O)O)C(=O)N[C@@H](CCCCN)C(=O)N[C@@H](CCC(N)=O)C(=O)N[C@@H](C)C(=O)N[C@@H](C)C(=O)NC(C)(C)C(=O)N[C@@H](CCC(=O)O)C(=O)N[C@@H](Cc1ccccc1)C(=O)N[C@H](C(=O)N[C@@H](CC(N)=O)C(=O)N[C@@H](Cc1c[nH]c2ccccc12)C(=O)N[C@@H](CC(C)C)C(=O)N[C@@H](CC(C)C)C(=O)N[C@@H](C)C(=O)NCC(=O)NCC(=O)N1CCC[C@H]1C(=O)N[C@@H](CO)C(=O)N[C@@H](CO)C(=O)NCC(=O)N[C@@H](C)C(=O)N1CCC[C@H]1C(=O)N1CCC[C@H]1C(=O)N1CCC[C@H]1C(=O)N[C@@H](CO)C(=O)N[C@@H](CCCCN)C(N)=O)C(C)C` [Compound 121]: the values for the Emax on GLP-1R and at GIP-R were 90% and 27%, respectively.

As for `CC[C@H](C)[C@H](NC(=O)[C@H](CO)NC(=O)[C@H](Cc1ccc(O)cc1)NC(=O)[C@H](CC(=O)O)NC(=O)[C@H](CO)NC(=O)[C@@H](NC(=O)[C@H](Cc1ccccc1)NC(=O)[C@@H](NC(=O)CNC(=O)[C@H](CCC(=O)O)NC(=O)CC(C)(C)CC(=O)NCCN1C(=O)CSC1=O)[C@@H](C)O)[C@@H](C)O)C(=O)N[C@@H](Cc1ccc(O)cc1)C(=O)N[C@@H](CC(C)C)C(=O)N[C@@H](CC(=O)O)C(=O)N[C@@H](CCCCN)C(=O)N[C@@H](CCC(N)=O)C(=O)N[C@@H](C)C(=O)N[C@@H](C)C(=O)NC(C)(C)C(=O)N[C@@H](CCC(=O)O)C(=O)N[C@@H](Cc1ccccc1)C(=O)N[C@H](C(=O)N[C@@H](CC(N)=O)C(=O)N[C@@H](Cc1c[nH]c2ccccc12)C(=O)N[C@@H](CC(C)C)C(=O)N[C@@H](CC(C)C)C(=O)N[C@@H](C)C(=O)NCC(=O)NCC(=O)N1CCC[C@H]1C(=O)N[C@@H](CO)C(=O)N[C@@H](CO)C(=O)NCC(=O)N[C@@H](C)C(=O)N1CCC[C@H]1C(=O)N1CCC[C@H]1C(=O)N1CCC[C@H]1C(=O)N[C@@H](CO)C(=O)N[C@@H](CCCCN)C(N)=O)C(C)C` [Compound 122], the maximal effect (Emax) turned out to be 91% at GLP-1R (Table 3, cAMP) and 91% on GLP-1R (Table 3A, cAMP). For the same compound, the EC50 was 1 to 10 nM on GLP-1R (setting [1]), 1 to 10 nM at GLP-1R (setting [2]), over 1000 nM at GIP-R (setting [3]) and over 1000 nM on GIP-R (setting [4]). Also, the Emax at 1 µM at GIP-R (cAMP) was under 1%.

Regarding `CC[C@H](C)[C@H](NC(=O)[C@H](CO)NC(=O)[C@H](Cc1ccc(O)cc1)NC(=O)[C@H](CC(=O)O)NC(=O)[C@H](CO)NC(=O)[C@@H](NC(=O)[C@H](Cc1ccccc1)NC(=O)[C@@H](NC(=O)CNC(=O)[C@H](CCC(=O)O)NC(=O)C1(C(=O)NCCN2C(=O)CSC2=O)Cc2ccccc2C1)[C@@H](C)O)[C@@H](C)O)C(=O)N[C@@H](Cc1ccc(O)cc1)C(=O)N[C@@H](CC(C)C)C(=O)N[C@@H](CC(=O)O)C(=O)N[C@@H](CCCCN)C(=O)N[C@@H](CCC(N)=O)C(=O)N[C@@H](C)C(=O)N[C@@H](C)C(=O)NC(C)(C)C(=O)N[C@@H](CCC(=O)O)C(=O)N[C@@H](Cc1ccccc1)C(=O)N[C@H](C(=O)N[C@@H](CC(N)=O)C(=O)N[C@@H](Cc1c[nH]c2ccccc12)C(=O)N[C@@H](CC(C)C)C(=O)N[C@@H](CC(C)C)C(=O)N[C@@H](C)C(=O)NCC(=O)NCC(=O)N1CCC[C@H]1C(=O)N[C@@H](CO)C(=O)N[C@@H](CO)C(=O)NCC(=O)N[C@@H](C)C(=O)N1CCC[C@H]1C(=O)N1CCC[C@H]1C(=O)N1CCC[C@H]1C(=O)N[C@@H](CO)C(=O)N[C@@H](CCCCN)C(N)=O)C(C)C` [Compound 124], the EC50 at GLP-1R (EC50 GLP-1R/nM, Table 3, cAMP) was 10 to 100 nM; on GLP-1R (EC50 GLP-1R/nM, Table 3A, cAMP), 10 to 100 nM; at GIP-R (EC50 GIP-R/nM, Table 3, cAMP) it was over 1000 nM; on GIP-R (read-out: EC50 GIP-R/nM, Table 3A, cAMP), over 1000 nM. Besides, the Emax on GLP-1R (Table 3, cAMP) was 73%; on GLP-1R (Table 3A, cAMP), 73%. Further, at GIP-R (cAMP), the Emax at 1 µM was 10%.

`CC[C@H](C)[C@H](NC(=O)[C@H](CO)NC(=O)[C@H](Cc1ccc(O)cc1)NC(=O)[C@H](CC(=O)O)NC(=O)[C@H](CO)NC(=O)[C@@H](NC(=O)[C@H](Cc1ccccc1)NC(=O)[C@@H](NC(=O)CNC(=O)[C@H](CCC(=O)O)NC(=O)CC(=O)NCCCN1C(=O)c2ccccc2C1=O)[C@@H](C)O)[C@@H](C)O)C(=O)N[C@@H](Cc1ccc(O)cc1)C(=O)N[C@@H](CC(C)C)C(=O)N[C@@H](CC(=O)O)C(=O)N[C@@H](CCCCN)C(=O)N[C@@H](CCC(N)=O)C(=O)N[C@@H](C)C(=O)N[C@@H](C)C(=O)NC(C)(C)C(=O)N[C@@H](CCC(=O)O)C(=O)N[C@@H](Cc1ccccc1)C(=O)N[C@H](C(=O)N[C@@H](CC(N)=O)C(=O)N[C@@H](Cc1c[nH]c2ccccc12)C(=O)N[C@@H](CC(C)C)C(=O)N[C@@H](CC(C)C)C(=O)N[C@@H](C)C(=O)NCC(=O)NCC(=O)N1CCC[C@H]1C(=O)N[C@@H](CO)C(=O)N[C@@H](CO)C(=O)NCC(=O)N[C@@H](C)C(=O)N1CCC[C@H]1C(=O)N1CCC[C@H]1C(=O)N1CCC[C@H]1C(=O)N[C@@H](CO)C(=O)N[C@@H](CCCCN)C(N)=O)C(C)C` [Compound 125]: the Emax at GLP-1R (Table 3, cAMP) is 94 to 100%; at GLP-1R (Table 3A, cAMP) it was 94 to 100%; on GIP-R (Table 3, cAMP), 54 to 60%; on GIP-R (Table 3A, cAMP) it was 54 to 60%. In addition, the EC50 was in the range of 10 to 100 nM at GLP-1R (setting [1]), 10 to 100 nM at GLP-1R (setting [2]), 1 to 10 nM at GIP-R (setting [3]) and 1 to 10 nM at GIP-R (setting [4]).
